# Assay results from patent US20030220386A1, “Delta 1-pyrrolines for use as pesticides” (priority 2000, published 2003).
# How the values were obtained:
# [1] = logP determination by HPLC (reversed-phase C 18), EEC Directive 79/831 Annex V.A8; format: physicochemical; conditions: reversed-phase C18 HPLC column, pH 2.3, 0.1% aqueous phosphoric acid/acetonitrile, 43° C., read-out: log P (pH 2.3)
# Description: The logP values given in the tables and preparation examples above are determined in accordance with EEC Directive 79/831 Annex V.A8 by HPLC (High Performance Liquid Chromatography) using a reversed-phase column (C 18). Temperature: 43° C.
# In the acidic range, the determination is carried out at pH 2.3 using the mobile phases 0.1% aqueous phosphoric acid and acetonitrile; linear gradient from 10% acetonitrile to 90% acetonitrile.
# In the neutral range, the determination is carried out at pH 7.5 using the mobile phases 0.01 molar aqueous phosphate buffer solution and acetonitrile; linear gradient from 10% acetonitrile to 90% acetonitrile.
# Calibration is carried out using unbranched alkan-2-ones (of 3 to 16 carbon atoms) with known logP values (determination of the logP values by the retention times using linear interpolation between two successive alkanones).
# [2] = test system: cotton aphid (Aphis gossypii); test: Aphis gossypii test; format: in vivo; conditions: 100 ppm, cotton leaves dipped
# [3] = test system: peach aphid (Myzus persicae); test: Myzus test; format: in vivo; conditions: 500 ppm, cabbage leaves dipped
# [4] = test system: fruit tree spider mite (Panonychus ulmi); test: Panonychus test; format: in vivo; conditions: 200 ppm, plum trees sprayed
# Description: (§1) After the desired period of time, the activity in % is determined.
# [5] = test system: caterpillars of the diamondback moth (Plutella xylostella); test: Plutella test; format: in vivo; conditions: 500 ppm, cabbage leaves dipped
# [6] = test system: larvae of the armyworm (Spodoptera exigua); test: Spodoptera exigua test; format: in vivo; conditions: 500 ppm, cabbage leaves dipped
# [7] = test system: larvae of the armyworm (Spodoptera frugiperda); test: Spodoptera frugiperda test; format: in vivo; conditions: 500 ppm, cabbage leaves dipped
# [8] = test system: greenhouse red spider mite (Tetranychus urticae); test: Tetranychus test (OP-resistant/dip treatment); format: in vivo; conditions: 100 ppm, bean plants dipped
# Description: as §1
# [9] = test system: Lucilia cuprina larvae; test: Blowfly larvae test/Development-inhibitory action; format: in vivo; conditions: 100 ppm; mortality of the larvae after 48 hours
# Description: (§2) 20 mg of active compound are dissolved in one ml of dimethyl sulphoxide. To prepare a suitable formulation, the solution of active compound is diluted with water to the concentration desired in each case.
# About 20 Lucilia cuprina larvae are introduced into a test tube which contains about 1 cm^3 of horsemeat and 0.5 ml of the preparation of active compound to be tested. The activity of the preparation of active compound is determined after 48 hours as the mortality of the larvae in %.
# The test tubes are then transferred into a beaker whose bottom is covered with sand. After a further 12 days, the test tubes are removed and the pupae and flies are counted. The development-inhibitory action is stated as inhibition of hatching in % (ratio of pupae to flies that have hatched) after 1.5 times the development period of an untreated control.
# [10] = test system: Amblyomma hebraeum nymphs; test: Test with polyphagous tick nymphs, dip treatment; format: in vivo; conditions: nymphs immersed for 1 minute; after 4 weeks
# Description: as §2
# 10 nymphs which have sucked themselves full are immersed for 1 minute into the preparation of active compound to be tested. The animals are transferred to Petri dishes (Ø 9.5 cm) fitted with filter discs and covered. After 4 weeks of storage in a climatized room, the mortality is determined.
# 100% means that none of the animals has undergone normal ecdysis. 0% means that all animals have undergone ecdysis.
# [11] = test system: larvae of the mustard beetle (Phaedon cochleariae); test: Phaedon larvae test; conditions: 1000 ppm, cabbage leaves dipped
smiles,measurement,setting,value
"O=S(=O)(Oc1ccc([C@H]2CCC(c3c(F)cccc3F)=N2)cc1)C(F)(F)F [I-2, (2R)-4-[5-(2,6-Difluorophenyl)-3,4-dihydro-2H-pyrrol-2-yl]phenyl trifluoromethanesulphonate]",chromatographic logP,[1],3.55
same,Kill rate in % after 6 days,[2],90%
same,Kill rate in % after 6 days,[3],98%
same,Kill rate in % after 7 days,[4],98%
same,Kill rate in % after 6 days,[5],100%
same,Kill rate in % after 6 days,[6],100%
same,Kill rate in % after 6 days,[7],95%
same,Kill rate in % after 7 days,[8],98%
same,Action in % after 48 hours,[9],100%
same,activity (mortality / no normal ecdysis),[10],good activity
same,Kill rate in % after 7 days,[11],100%
